The nature of this data set: Pharmacokinetic study after oral administration to rats. Format: in vivo, Sprague-Dawley male rats.

Each structure is given as a SMILES string.

`O=C([O-])Cc1ccccc1Nc1c(Cl)cccc1Cl.[K+]` [DCFP, Diclofenac potassium]: under “25 mg kg^−1”, the “AUC(0–t)” value stood at 53.99 ± 3.18 mg/L/h, the “AUC(0–∞)” value was 59.22 ± 5.23 mg/L/h and the Cmax is 15520 ± 1050 ng/mL. Also, the blood drug concentration entry (at 10 h) is listed as “nearly undetectable”. The blood drug concentration entry (within 1 h) is listed as “not detectable”.
